Reference: EP0048614B1, “1-N-acylated and 1-N-alkylated derivatives of 4-0-substituted -2-deoxystreptamine aminoglycosides” (ELI LILLY AND COMPANY, priority 1980, dated 1982)
In brackets after ≈: the same amount, converted by molar mass.

Legend:
[1] = test system: Streptococcus pneumoniae Park I; assay: MIC, standard agar dilution test; type: cell-based; conditions: Streptococcus pneumoniae; read-out: Minimum Inhibitory Concentration
From the text: (§1) The antibacterial activity of the deprotected compounds of this invention is illustrated by the following in vitro and in vivo test data obtained with representative compounds. In Table I, the minimum inhibitory concentration (MIC) for representative compounds against a wide range of gram-positive and gram-negative bacteria is presented. The MIC values were obtained by the standard agar dilution test.

[2] = test system: Enterobacter aerogenes X68; assay: MIC, standard agar dilution test; type: cell-based; conditions: Klebsiella aerogenes, Enterobacter aerogenes X68, read-out: Minimum Inhibitory Concentration
From the text: as §1

[3] = test system: Staphylococcus epidermidis EPI2; assay: MIC, standard agar dilution test; type: cell-based; conditions: Staphylococcus epidermidis EPI2; agar dilution; read-out: Minimum Inhibitory Concentration
From the text: as §1

[4] = test system: Escherichia coli EC14; assay: MIC, standard agar dilution test; type: cell-based; conditions: Escherichia coli EC14; agar dilution; read-out: Minimum Inhibitory Concentration
From the text: as §1

[5] = test system: Staphylococcus aureus S13E; assay: MIC, standard agar dilution test; type: cell-based; conditions: read-out: Minimum Inhibitory Concentration
From the text: as §1

[6] = test system: Escherichia coli N10; assay: MIC, standard agar dilution test; type: cell-based; conditions: Escherichia coli, N10, Escherichia coli N10; agar dilution; read-out: Minimum Inhibitory Concentration
From the text: as §1

[7] = test system: Klebsiella pneumoniae KAE; assay: MIC, standard agar dilution test; type: cell-based; conditions: Klebsiella pneumoniae KAE; agar dilution; read-out: Minimum Inhibitory Concentration
From the text: as §1

[8] = test system: Staphylococcus aureus X400; assay: MIC, standard agar dilution test; type: cell-based; conditions: Staphylococcus aureus X400, read-out: Minimum Inhibitory Concentration
From the text: as §1

[9] = test system: Serratia marcescens SE3; assay: MIC, standard agar dilution test; type: cell-based; conditions: Serratia marcescens SE3; agar dilution; read-out: Minimum Inhibitory Concentration
From the text: as §1

[10] = test system: Enterobacter cloacae EB5; assay: MIC, standard agar dilution test; type: cell-based; conditions: Enterobacter cloacae EB5; agar dilution; read-out: Minimum Inhibitory Concentration
From the text: as §1

[11] = test system: Streptococcus pyogenes C203; assay: MIC, standard agar dilution test; type: cell-based; conditions: Streptococcus pyogenes C203; agar dilution; read-out: Minimum Inhibitory Concentration
From the text: as §1

[12] = test system: Enterobacter aerogenes EB17; assay: MIC, standard agar dilution test; type: cell-based; conditions: Klebsiella aerogenes; Enterobacter aerogenes EB17; agar dilution; read-out: Minimum Inhibitory Concentration
From the text: as §1

[13] = test system: Proteus morganii PR15; assay: MIC, standard agar dilution test; type: cell-based; conditions: Morganella morganii; Proteus morganii PR15; agar dilution; read-out: Minimum Inhibitory Concentration
From the text: as §1

[14] = test system: Proteus rettgeri PR7; assay: MIC, standard agar dilution test; type: cell-based; conditions: Providencia rettgeri, Proteus rettgeri PR7, read-out: Minimum Inhibitory Concentration
From the text: as §1

[15] = test system: Staphylococcus epidermidis EPI1; assay: MIC, standard agar dilution test; type: cell-based; conditions: Staphylococcus epidermidis, EPI1; read-out: Minimum Inhibitory Concentration
From the text: as §1

[16] = test system: Staphylococcus aureus X1.1; assay: MIC, standard agar dilution test; type: cell-based; conditions: Staphylococcus aureus X1.1; agar dilution; read-out: Minimum Inhibitory Concentration
From the text: as §1

[17] = test system: Pseudomonas aeruginosa X528; assay: MIC, standard agar dilution test; type: cell-based; conditions: Pseudomonas aeruginosa X528; agar dilution; read-out: Minimum Inhibitory Concentration
From the text: as §1

[18] = test system: Enterobacter cloacae 265A; assay: MIC, standard agar dilution test; type: cell-based; conditions: Enterobacter cloacae 265A; agar dilution; read-out: Minimum Inhibitory Concentration
From the text: as §1

[19] = test system: Citrobacter freundii CF17; assay: MIC, standard agar dilution test; type: cell-based; conditions: Citrobacter freundii CF17; agar dilution; read-out: Minimum Inhibitory Concentration
From the text: as §1

[20] = test system: Salmonella heidelberg X514; assay: MIC, standard agar dilution test; type: cell-based; conditions: Salmonella enterica; Salmonella heidelberg X514; agar dilution; read-out: Minimum Inhibitory Concentration
From the text: as §1

[21] = test system: Escherichia coli TEM; assay: MIC, standard agar dilution test; type: cell-based; conditions: read-out: Minimum Inhibitory Concentration
From the text: as §1

[22] = test system: Klebsiella pneumoniae X26; assay: MIC, standard agar dilution test; type: cell-based; conditions: Klebsiella pneumoniae X26; agar dilution; read-out: Minimum Inhibitory Concentration
From the text: as §1

[23] = test system: Streptococcus group D 9960; assay: MIC, standard agar dilution test; type: cell-based; conditions: D9960; Streptococcus group D 9960; agar dilution; read-out: Minimum Inhibitory Concentration
From the text: as §1

[24] = test system: Proteus inconstans PR33; assay: MIC, standard agar dilution test; type: cell-based; conditions: Providencia alcalifaciens; Proteus inconstans PR33; agar dilution; read-out: Minimum Inhibitory Concentration
From the text: as §1

[25] = test system: Pseudomonas aeruginosa X239; assay: MIC, standard agar dilution test; type: cell-based; conditions: Pseudomonas aeruginosa X239; agar dilution; read-out: Minimum Inhibitory Concentration
From the text: as §1

[26] = test system: Hemophilus influenzae C.L.; assay: MIC, standard agar dilution test; type: cell-based; conditions: Haemophilus influenzae, Hemophilus influenzae C.L., read-out: Minimum Inhibitory Concentration
From the text: as §1

[27] = test system: Salmonella typhimurium 1335; assay: MIC, standard agar dilution test; type: cell-based; conditions: Salmonella enterica; Salmonella typhimurium 1335; agar dilution; read-out: Minimum Inhibitory Concentration
From the text: as §1

[28] = test system: Staphylococcus aureus V41; assay: MIC, standard agar dilution test; type: cell-based; conditions: Staphylococcus aureus V41; agar dilution; read-out: Minimum Inhibitory Concentration
From the text: as §1

[29] = test system: Shigella sonnei N9; assay: MIC, standard agar dilution test; type: cell-based; conditions: read-out: Minimum Inhibitory Concentration
From the text: as §1

[30] = test system: Enterobacter aerogenes C32; assay: MIC, standard agar dilution test; type: cell-based; conditions: Klebsiella aerogenes; Enterobacter aerogenes C32; agar dilution; read-out: Minimum Inhibitory Concentration
From the text: as §1

[31] = test system: Pseudomonas aeruginosa Ps18; assay: MIC, standard agar dilution test; type: cell-based; conditions: Pseudomonas aeruginosa Ps18; agar dilution; read-out: Minimum Inhibitory Concentration
From the text: as §1

[32] = test system: Proteus rettgeri C24; assay: MIC, standard agar dilution test; type: cell-based; conditions: Providencia rettgeri; Proteus rettgeri C24; agar dilution; read-out: Minimum Inhibitory Concentration
From the text: as §1

[33] = test system: Bordetella bronchiseptica 16; assay: MIC, standard agar dilution test; type: cell-based; conditions: Bordetella bronchiseptica 16; agar dilution; read-out: Minimum Inhibitory Concentration
From the text: as §1

[34] = test system: Streptococcus group D X66; assay: MIC, standard agar dilution test; type: cell-based; conditions: DX66; Streptococcus group D X66; agar dilution; read-out: Minimum Inhibitory Concentration
From the text: as §1

[35] = test system: Serratia marcescens X99; assay: MIC, standard agar dilution test; type: cell-based; conditions: Serratia marcescens X99, read-out: Minimum Inhibitory Concentration
From the text: as §1

[36] = test system: Hemophilus influenzae 76; assay: MIC, standard agar dilution test; type: cell-based; conditions: Haemophilus influenzae, Hemophilus influenzae 76, read-out: Minimum Inhibitory Concentration
From the text: as §1

[37] = test system: Staphylococcus aureus 3055; assay: Subcutaneous therapy of experimental bacterial infection in mice (ED50); type: in vivo; conditions: Staphylococcus aureus, 3055, sc; mg/kg × 2 subcutaneous doses at 1 and 5 hours post infection; mice challenged with 68.1 LD50's; read-out: Effective Dose (ED50)
Protocol: Table II illustrates the effective dose (ED50, the effective dose to protect 50 percent of the test animals) for representative compounds of this invention against an experimental bacterial infection in mice.
The ED50 values were determined as described by W. E. Wick et al., Journal of Bacteriology, 81 [No. 2], 233-235 (1961).

[38] = test system: Escherichia coli X563; assay: Standard disc-plate method, zone of inhibition against apramycin-resistant strain; type: cell-based; conditions: apramycin-resistant E. coli X563, one value for each of two test runs per compound
From the text: Table III, shown below, illustrates the in vitro activity of 1-N-(S-y-amino-a-hydroxybutyryl)apramycin, 1-N-(RS-y-amino-a-hydroxybutyryl)apramycin, and 1-N-(S-y-amino-a-hydroxybutyryl)nebramine against an apramycin resistant strain of E. coli. The results below were obtained using the standard disc-plate method. The numerical values are the diameters in millimeters of the zones of inhibition observed against this bacterium. Compounds substituted with the y-amino-a-hydroxybutyryl and analogous side chains are useful in treating infections caused by apramycin resistant bacteria such as the one above.
The test organism (E. coli X563) used in the experiments summarized in Table III is resistant to apramycin due to a 3-N-acetyltransferase which enzymatically inactivates apramycin.

How did the MIC [1] turn out when CCNC1CC(N)C(OC2OC3C(CC2N)OC(OC2OC(CO)C(N)C(O)C2O)C(NC)C3O)C(O)C1O (stereo not drawn) [Test Compound 4, 1-N-ethylapramycin] was run?
Its MIC is 16 mg/L (≈ 28.2 µM).

What about the MIC [2] of the same molecule?
The MIC was 16 mg/L (≈ 28.2 µM).

What about the MIC [3] of the same molecule?
Its MIC is 4 mg/L (≈ 7.05 µM).

And the MIC [4]?
Its MIC is 32 mg/L (≈ 56.4 µM).

What about the MIC [5] of the same molecule?
The MIC was 8 mg/L (≈ 14.1 µM).

And the MIC [6]?
The MIC was 16 mg/L (≈ 28.2 µM).

And the MIC [7]?
Its MIC is 16 mg/L (≈ 28.2 µM).

What about the MIC [8] of the same molecule?
The MIC was 16 mg/L (≈ 28.2 µM).

What about the MIC [9] of the same molecule?
The MIC was over 128 mg/L.

And the MIC [10]?
The MIC was 32 mg/L (≈ 56.4 µM).

And the MIC [11]?
The MIC was 16 mg/L (≈ 28.2 µM).

And the MIC [12]?
Its MIC is 16 mg/L (≈ 28.2 µM).

And the MIC [13]?
The MIC was 32 mg/L (≈ 56.4 µM).

And the MIC [14]?
The MIC was 8 mg/L (≈ 14.1 µM).

And the MIC [15]?
The MIC was 8 mg/L (≈ 14.1 µM).

What about the MIC [16] of the same molecule?
Its MIC is 8 mg/L (≈ 14.1 µM).

What about the MIC [17] of the same molecule?
Its MIC is 16 mg/L (≈ 28.2 µM).

What about the MIC [18] of the same molecule?
The MIC was 32 mg/L (≈ 56.4 µM).

What about the MIC [19] of the same molecule?
The MIC was 16 mg/L (≈ 28.2 µM).

What about the MIC [20] of the same molecule?
The MIC was 32 mg/L (≈ 56.4 µM).

And the MIC [21]?
Its MIC is 8 mg/L (≈ 14.1 µM).

And the MIC [22]?
Its MIC is 8 mg/L (≈ 14.1 µM).

And the MIC [23]?
Its MIC is over 128 mg/L.

And the MIC [24]?
Its MIC is 128 mg/L (≈ 225 µM).

And the MIC [25]?
The MIC was 8 mg/L (≈ 14.1 µM).

And the MIC [26]?
Its MIC is 16 mg/L (≈ 28.2 µM).

What about the MIC [27] of the same molecule?
The MIC was 32 mg/L (≈ 56.4 µM).

What about the MIC [28] of the same molecule?
The MIC was 8 mg/L (≈ 14.1 µM).

What about the MIC [29] of the same molecule?
Its MIC is 16 mg/L (≈ 28.2 µM).

And the MIC [30]?
Its MIC is 8 mg/L (≈ 14.1 µM).

And the MIC [31]?
Its MIC is 32 mg/L (≈ 56.4 µM).

What about the MIC [32] of the same molecule?
The MIC was 64 mg/L (≈ 113 µM).

And the MIC [33]?
Its MIC is 64 mg/L (≈ 113 µM).

What about the MIC [34] of the same molecule?
Its MIC is over 128 mg/L.

What about the MIC [35] of the same molecule?
Its MIC is 64 mg/L (≈ 113 µM).

What about the MIC [36] of the same molecule?
Its MIC is 16 mg/L (≈ 28.2 µM).

And the ED50 [37]?
Its ED50 is 4.5 mg/kg.

And the “Zone of Inhibition (diameter in mm)” value ([38]; 15 mcg/disc, listed as 5)?
The value was 12.1 mm.

And the zone of inhibition at 15 µg/disc ([38]; Escherichia coli, X563, read-out: Zone of Inhibition (diameter in mm), 15 mcg/disc)?
The zone of inhibition at 15 µg/disc was 11.3 mm.
